Measured values published in ChEMBL document CHEMBL4033666, “Synthesis and mechanistic evaluation of novel N'-benzylidene-carbohydrazide-1H-pyrazolo[3,4-b]pyridine derivatives as non-anionic antiplatelet agents” (Eur J Med Chem, 2017).
pIC50: −log10 of the molar value. Active and inactive are the calls of the source.

Columns and labels:
Platelet [1] = assay: Antiplatelet activity in human platelet rich plasma assessed as inhibition of collagen-induced platelet aggregation at 100 uM preincubated for 2 mins followed by collagen addition by turbidimetric method relative to control; type: cell-based
Platelet [2] = assay: Antiplatelet activity in human platelet rich plasma assessed as inhibition of epinephrine-induced platelet aggregation at 100 uM preincubated for 2 mins followed by epinephrine addition by turbidimetric method relative to control; type: cell-based
Plasma [3] = assay: Change in prothrombin time in human plasma at 100 uM incubated for 15 mins at room temperature and 2 mins at 37 degC in presence of calcium thromboplastin; type: ADME, cell-free
Platelet [4] = assay: Antiplatelet activity in human platelet rich plasma assessed as inhibition of ADP-induced platelet aggregation at 100 uM preincubated for 2 mins followed by ADP addition by turbidimetric method relative to control; type: cell-based
Platelet [5] = assay: Antiplatelet activity in human platelet rich plasma assessed as inhibition of arachidonic acid-induced platelet aggregation at 100 uM preincubated for 2 mins followed by arachidonic acid addition by turbidimetric method relative to control; type: functional
Plasma [6] = assay: Change in activated partial thromboplastin time in human plasma at 100 uM incubated for 15 mins at room temperature and 2 mins at 37 degC in presence of CaCl2; type: ADME, cell-free
[7] = Hemolytic activity against human erythrocytes after 3 hrs relative to control; type: ADME, cell-based, Erythrocyte; conditions: read-out: Activity
[8] = target: T1, Thromboxane-A synthase (Homo sapiens) (UniProt P24557); assay: Inhibition of TXS in human platelet rich plasma assessed as decrease in TXB2 production at 100 uM using arachidonic acid after 5 mins by ELISA
T1 sequence (whole entry): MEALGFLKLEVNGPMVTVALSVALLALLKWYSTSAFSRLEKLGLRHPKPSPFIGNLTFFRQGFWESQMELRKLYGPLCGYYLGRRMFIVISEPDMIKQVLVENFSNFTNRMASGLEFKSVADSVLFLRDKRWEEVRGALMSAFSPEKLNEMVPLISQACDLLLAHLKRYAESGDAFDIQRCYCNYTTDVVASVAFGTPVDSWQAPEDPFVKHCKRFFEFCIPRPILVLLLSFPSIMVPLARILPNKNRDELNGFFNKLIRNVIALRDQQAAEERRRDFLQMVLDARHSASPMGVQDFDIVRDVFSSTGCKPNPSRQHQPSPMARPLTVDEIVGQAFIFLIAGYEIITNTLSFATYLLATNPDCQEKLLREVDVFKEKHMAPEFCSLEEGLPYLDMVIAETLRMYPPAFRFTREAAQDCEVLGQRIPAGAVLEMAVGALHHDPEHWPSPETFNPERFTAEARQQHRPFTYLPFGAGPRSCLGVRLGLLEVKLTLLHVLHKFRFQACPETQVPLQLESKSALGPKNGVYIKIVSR

Platelet [9] = assay: Antiplatelet activity in human platelet rich plasma assessed as inhibition of arachidonic acid-induced platelet aggregation preincubated for 2 mins followed by arachidonic acid addition by turbidimetric method relative to control; type: functional, cell-based

inhibition [8]	pIC50 (Platelet [9])	Compound	inhibition at 100 µM (Platelet [1]) [%]	inhibition at 100 µM (Platelet [2]) [%]	Activity (Plasma [3])	inhibition at 100 µM (Platelet [4]) [%]	inhibition at 100 µM (Platelet [5]) [%]	Activity (Plasma [6])	hemolysis at 3 h [7] [%]
–	–	Cc1nn(-c2ccccc2)c2nc(C(F)(F)F)cc(C(=O)N/N=C/c3ccc(Br)cc3)c12	5.37	1.52	Non-Toxic	7.46	6.18	Non-Toxic	–
–	–	CCOc1ccc(/C=N/NC(=O)c2cc(C(F)(F)F)nc3c2c(C)nn3-c2ccccc2)cc1	2	13.1	Non-Toxic	5.55	1.26	Non-Toxic	30
Active	4.42	CC(=O)Oc1ccccc1C(=O)O [ASPIRIN]	85.3	58.6	–	41.9	96.6	–	–
–	–	Cc1nn(-c2ccccc2)c2nc(C(F)(F)F)cc(C(=O)N/N=C/c3ccc(F)cc3)c12	0.3	0	Non-Toxic	7.95	0	Non-Toxic	–
–	–	Cc1ccc(/C=N/NC(=O)c2cc(C(F)(F)F)nc3c2c(C)nn3-c2ccccc2)cc1	7.84	0.71	Non-Toxic	0.27	0.27	Non-Toxic	–
–	–	Cc1nn(-c2ccccc2)c2nc(C(F)(F)F)cc(C(=O)N/N=C/c3ccc(O)cc3)c12	13.3	15.9	Non-Toxic	12.5	10.4	Non-Toxic	99
–	–	Cc1nn(-c2ccccc2)c2nc(C(F)(F)F)cc(C(=O)N/N=C/c3ccc(C#N)cc3)c12	3.59	0	Non-Toxic	4.55	4.77	Non-Toxic	–
–	–	COc1ccc(/C=N/NC(=O)c2cc(C)nc3c2c(C)nn3-c2ccccc2)cc1	15	8.4	Non-Toxic	2.9	3.43	Non-Toxic	–
–	–	Cc1cc(C(=O)N/N=C/c2ccc(C#N)cc2)c2c(C)nn(-c3ccccc3)c2n1	1.68	0	Non-Toxic	33.6	24.4	Non-Toxic	–
–	–	COc1ccc(/C=N/NC(=O)c2cc(C(F)(F)F)nc3c2c(C)nn3-c2ccccc2)cc1	0	0	Non-Toxic	0	2.39	Non-Toxic	–
Active	4.27	O=C(O)/C=C/c1ccc(Cn2ccnc2)cc1 [OZAGREL]	–	–	–	–	–	–	–
–	–	Cc1cc(C(=O)N/N=C/c2ccccc2)c2c(C)nn(-c3ccccc3)c2n1	9.6	7	Non-Toxic	0	3.96	Non-Toxic	–
–	–	CCOc1ccc(/C=N/NC(=O)c2cc(C)nc3c2c(C)nn3-c2ccccc2)cc1	0	0	Non-Toxic	1.69	1.26	Non-Toxic	–
–	–	Cc1nn(-c2ccccc2)c2nc(C(F)(F)F)cc(C(=O)N/N=C/c3ccc([N+](=O)[O-])cc3)c12	0	0	Non-Toxic	6.93	0	Non-Toxic	–
–	–	Cc1nn(-c2ccccc2)c2nc(C(F)(F)F)cc(C(=O)N/N=C/c3ccc(Cl)cc3)c12	0	17	Non-Toxic	10.1	6.71	Non-Toxic	–
–	–	Cc1nn(-c2ccccc2)c2nc(C(F)(F)F)cc(C(=O)N/N=C/c3ccccc3)c12	0	14.1	Non-Toxic	5.98	0.27	Non-Toxic	–
